According to patent US12441726B2, “Compounds and uses thereof” (Foghorn Therapeutics Inc., priority 2020, dated 2025):

Experiments:
BRM = BRM (Homo sapiens, UniProt P51531); assay: ATPase catalytic activity assay (ADP-Glo), BRM; settings: 30 nM BRM, 400 μM ATP; for IC50: BRM ATPase: IC50 (uM)
BRG-1 = BRG-1 (Homo sapiens, UniProt P51532); assay: ATPase catalytic activity assay (ADP-Glo), BRG-1; settings: for Emax: 1 h, read-out: BRG1 Max % Inhibition, ADP-Glo, 30 nM BRG-1, 400 μM ATP
BRG-1, sequence (P51532 whole entry): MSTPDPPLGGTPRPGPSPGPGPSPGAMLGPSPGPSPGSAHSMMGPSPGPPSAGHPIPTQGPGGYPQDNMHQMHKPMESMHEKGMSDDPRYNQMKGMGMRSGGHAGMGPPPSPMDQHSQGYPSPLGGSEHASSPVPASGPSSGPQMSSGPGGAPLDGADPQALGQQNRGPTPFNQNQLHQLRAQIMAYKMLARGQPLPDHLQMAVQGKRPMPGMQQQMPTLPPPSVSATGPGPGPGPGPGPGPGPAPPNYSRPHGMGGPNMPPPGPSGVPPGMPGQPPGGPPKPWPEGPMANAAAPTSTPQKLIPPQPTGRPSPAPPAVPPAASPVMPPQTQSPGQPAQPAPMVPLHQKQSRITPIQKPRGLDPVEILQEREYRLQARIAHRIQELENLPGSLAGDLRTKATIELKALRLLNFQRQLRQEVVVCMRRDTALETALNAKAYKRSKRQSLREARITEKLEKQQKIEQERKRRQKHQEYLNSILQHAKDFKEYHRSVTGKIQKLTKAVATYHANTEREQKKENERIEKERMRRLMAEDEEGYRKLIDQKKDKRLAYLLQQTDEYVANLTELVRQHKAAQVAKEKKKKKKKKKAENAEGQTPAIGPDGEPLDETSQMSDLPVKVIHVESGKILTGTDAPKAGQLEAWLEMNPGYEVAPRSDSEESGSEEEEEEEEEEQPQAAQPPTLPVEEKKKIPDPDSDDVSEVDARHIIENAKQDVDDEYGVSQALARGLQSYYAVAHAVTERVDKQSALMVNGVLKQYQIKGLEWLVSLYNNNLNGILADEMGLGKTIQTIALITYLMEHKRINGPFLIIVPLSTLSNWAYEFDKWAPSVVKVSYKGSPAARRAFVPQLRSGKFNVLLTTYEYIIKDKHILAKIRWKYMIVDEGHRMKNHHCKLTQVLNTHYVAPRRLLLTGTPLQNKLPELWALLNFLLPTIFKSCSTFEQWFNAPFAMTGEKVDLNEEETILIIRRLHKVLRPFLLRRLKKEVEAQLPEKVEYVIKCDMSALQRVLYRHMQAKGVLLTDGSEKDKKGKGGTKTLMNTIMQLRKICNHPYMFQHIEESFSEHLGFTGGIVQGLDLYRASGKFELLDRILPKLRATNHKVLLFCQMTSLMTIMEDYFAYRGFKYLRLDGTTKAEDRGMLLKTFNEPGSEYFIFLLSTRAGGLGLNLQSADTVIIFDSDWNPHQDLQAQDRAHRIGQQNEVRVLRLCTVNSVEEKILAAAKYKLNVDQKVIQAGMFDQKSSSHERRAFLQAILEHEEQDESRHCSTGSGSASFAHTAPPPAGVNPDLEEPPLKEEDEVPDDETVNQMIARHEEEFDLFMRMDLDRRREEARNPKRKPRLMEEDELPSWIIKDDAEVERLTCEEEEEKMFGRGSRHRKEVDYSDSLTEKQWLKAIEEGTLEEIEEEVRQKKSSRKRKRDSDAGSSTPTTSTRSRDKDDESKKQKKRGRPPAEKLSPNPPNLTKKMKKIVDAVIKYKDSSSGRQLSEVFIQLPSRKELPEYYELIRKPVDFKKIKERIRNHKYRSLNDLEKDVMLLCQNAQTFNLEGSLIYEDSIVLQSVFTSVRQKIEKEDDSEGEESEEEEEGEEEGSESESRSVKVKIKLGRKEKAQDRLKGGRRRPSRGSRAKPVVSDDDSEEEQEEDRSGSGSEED

BRM, sequence (P51531 whole entry): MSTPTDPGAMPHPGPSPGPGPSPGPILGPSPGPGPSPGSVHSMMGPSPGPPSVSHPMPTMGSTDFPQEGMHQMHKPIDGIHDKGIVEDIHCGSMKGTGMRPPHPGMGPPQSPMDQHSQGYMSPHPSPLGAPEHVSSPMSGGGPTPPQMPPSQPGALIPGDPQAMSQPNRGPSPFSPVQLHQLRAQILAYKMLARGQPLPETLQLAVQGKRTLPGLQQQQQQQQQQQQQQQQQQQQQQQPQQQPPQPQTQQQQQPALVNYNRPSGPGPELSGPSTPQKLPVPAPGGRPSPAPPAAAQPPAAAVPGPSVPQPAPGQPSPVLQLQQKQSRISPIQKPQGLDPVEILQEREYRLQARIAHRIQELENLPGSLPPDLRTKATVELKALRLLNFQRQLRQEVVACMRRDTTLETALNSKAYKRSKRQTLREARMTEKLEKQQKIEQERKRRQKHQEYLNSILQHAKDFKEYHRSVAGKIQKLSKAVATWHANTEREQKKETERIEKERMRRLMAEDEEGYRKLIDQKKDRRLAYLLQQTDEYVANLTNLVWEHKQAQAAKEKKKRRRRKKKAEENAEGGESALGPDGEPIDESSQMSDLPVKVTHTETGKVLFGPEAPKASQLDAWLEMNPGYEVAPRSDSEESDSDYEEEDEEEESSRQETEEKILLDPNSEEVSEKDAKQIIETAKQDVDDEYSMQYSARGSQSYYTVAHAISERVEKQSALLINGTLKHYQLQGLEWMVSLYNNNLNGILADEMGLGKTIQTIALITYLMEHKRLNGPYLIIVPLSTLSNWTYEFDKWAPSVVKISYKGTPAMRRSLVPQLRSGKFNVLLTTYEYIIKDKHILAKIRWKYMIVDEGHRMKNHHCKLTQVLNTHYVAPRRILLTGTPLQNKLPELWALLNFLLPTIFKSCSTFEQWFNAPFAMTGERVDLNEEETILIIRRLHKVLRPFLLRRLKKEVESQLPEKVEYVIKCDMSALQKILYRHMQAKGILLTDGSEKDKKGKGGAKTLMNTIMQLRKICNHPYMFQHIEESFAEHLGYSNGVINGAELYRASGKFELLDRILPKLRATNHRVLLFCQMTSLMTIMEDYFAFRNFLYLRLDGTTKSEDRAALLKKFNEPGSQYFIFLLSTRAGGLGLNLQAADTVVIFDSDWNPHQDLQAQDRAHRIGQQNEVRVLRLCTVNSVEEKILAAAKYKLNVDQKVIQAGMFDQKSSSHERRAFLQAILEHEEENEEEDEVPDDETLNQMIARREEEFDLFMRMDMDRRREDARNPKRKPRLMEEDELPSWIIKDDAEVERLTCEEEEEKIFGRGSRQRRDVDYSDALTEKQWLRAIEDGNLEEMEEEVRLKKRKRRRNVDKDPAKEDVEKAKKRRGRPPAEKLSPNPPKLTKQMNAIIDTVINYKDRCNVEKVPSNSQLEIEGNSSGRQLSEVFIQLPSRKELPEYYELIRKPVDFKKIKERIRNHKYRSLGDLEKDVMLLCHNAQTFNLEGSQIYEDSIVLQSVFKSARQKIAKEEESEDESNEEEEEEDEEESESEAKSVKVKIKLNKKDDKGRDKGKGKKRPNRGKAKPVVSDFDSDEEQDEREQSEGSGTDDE

BRM Max % Inhibition (BRM) | IC50 (BRM) | IC50 (BRG-1) | Emax (BRG-1) | Compound
97% | < 0.1 µM | 0.1 to 0.5 µM | 88% | COc1nn(C)cc1-c1ccc2cnc(CNC(=O)c3ccc4c(c3)[C@](C)(C#N)COC4)cc2n1 [Compound 454]
71% | > 1 µM | > 1 µM | 16% | C[C@@]1(C#N)COCc2ccc(C(=O)NCc3cc4nc(C5CCOCC5)ccc4cn3)cc21 [Compound 107]
97% | < 0.1 µM | 0.5 to 1 µM | 66% | C[C@@]1(C#N)COCc2ccc(C(=O)NCc3cc4nc(-c5cn(C6COC6)nc5C5CC5)ccc4cn3)cc21 [Compound 186]
96% | 0.1 to 0.5 µM | 0.5 to 1 µM | 68% | C[C@@]1(C#N)COCc2c(F)cc(C(=O)NCc3cc4nc(-c5ccccc5)ccc4cn3)cc21 [Compound 400]
105% | 0.1 to 0.5 µM | 0.5 to 1 µM | 81% | CNC(=O)c1ccc(-c2ccc3cnc(CNC(=O)c4ccc5c(c4)[C@](C)(C#N)COC5)cc3n2)cc1 [Compound 324]
97% | < 0.1 µM | 0.1 to 0.5 µM | 84% | C[C@@]1(C#N)COCc2ccc(C(=O)NCc3cc4nc(-c5ccnc(N6C[C@H]7C[C@@H]6CO7)n5)ccc4cn3)cc21 [Compound 310]
94% | 0.1 to 0.5 µM | > 1 µM | 62% | C[C@@]1(C#N)COCc2ncc(C(=O)NCc3cc4nc(-c5ccccc5)ccc4cn3)cc21 [Compound 122]
100% | < 0.1 µM | < 0.1 µM | 97% | C[C@@]1(C#N)COCc2ccc(C(=O)NCc3cc4nc(-c5cncc(N6CCC6)n5)ccc4cn3)cc21 [Compound 497]
98% | < 0.1 µM | > 1 µM | 98% | C[C@@]1(C#N)COCc2ccc(C(=O)NCc3cc4nc(-c5cccc(N6CCCC6)n5)ccc4cn3)cc21 [Compound 361]
97% | < 0.1 µM | 0.1 to 0.5 µM | 91% | C[C@@]1(C#N)COCc2ccc(C(=O)NCc3cc4nc(-c5ccnc(C6CC6)n5)ccc4cn3)cc21 [Compound 417]
98% | 0.1 to 0.5 µM | > 1 µM | 91% | CN(C)c1cccc([C@H]2C[C@H](c3ccnc(CNC(=O)c4ccc5c(c4)[C@](C)(C#N)COC5)c3)C2)n1 [Compound 76]
99% | < 0.1 µM | 0.1 to 0.5 µM | 92% | C[C@@]1(C#N)COCc2ccc(C(=O)NCc3cc4cc(-c5ccnc(N6CCC6)n5)ccc4nn3)cc21 [Compound 336]
90% | 0.1 to 0.5 µM | > 1 µM | 51% | COC1(c2cccc(-c3ccc4cnc(CNC(=O)c5ccc6c(c5)[C@](C)(C#N)COC6)cc4n3)c2)COC1 [Compound 418]
89% | 0.1 to 0.5 µM | > 1 µM | 39% | C[C@@H](O)c1cccc(-c2ccc3cnc(CNC(=O)c4cnc5c(c4)[C@](C)(F)COC5)cc3n2)n1 [Compound 212]
94% | 0.1 to 0.5 µM | > 1 µM | 53% | C[C@@]1(C#N)COCc2ccc(C(=O)NCc3cc(OCc4cccc(N5CCC5)n4)ccn3)cc21 [Compound 34]
96% | 0.1 to 0.5 µM | 0.5 to 1 µM | 75% | C[C@@]1(C#N)COCc2ccc(C(=O)NCc3cc4nc(-c5ccnc(C6COC6)n5)ccc4cn3)cc21 [Compound 158]

BRM Max % Inhibition (BRM) | IC50 (BRM) | IC50 (BRG-1) | Emax (BRG-1) | Compound
100% | < 0.1 µM | < 0.1 µM | 97% | C[C@@]1(C#N)COCc2ccc(C(=O)NCc3cc4nc(-c5cncc(N6CC[C@@H](F)C6)n5)ccc4cn3)cc21 [Compound 291]
97% | < 0.1 µM | > 1 µM | 86% | COc1cccc(/C=C/c2ccnc(CNC(=O)c3ccc4c(c3)[C@](C)(C#N)COC4)c2)c1 [Compound 38]
96% | 0.1 to 0.5 µM | > 1 µM | 63% | C[C@@]1(C#N)COCc2ccc(C(=O)NCc3cc4nc(N5CCCC5=O)ccc4cn3)cc21 [Compound 471]
100% | < 0.1 µM | 0.1 to 0.5 µM | 95% | C[C@@]1(C#N)COCc2ccc(C(=O)NCc3cc4nc(-c5cccc(N6CCC6=O)n5)ccc4cn3)cc21 [Compound 392]
64% | > 1 µM | > 1 µM | 44% | C[C@@]1(C#N)COCc2ccc(C(=O)NCc3cc(OCc4ccccn4)ccn3)cc21 [Compound 36]
93% | 0.1 to 0.5 µM | > 1 µM | 53% | CN1CCN(c2cccc(-c3ccc4cnc(CNC(=O)c5ccc6c(c5)[C@](C)(C#N)COC6)cc4n3)c2)CC1 [Compound 474]
74% | 0.1 to 0.5 µM | > 1 µM | 32% | CC(=O)N(C)c1cccc(-c2ccc3cnc(CNC(=O)c4ccc5c(c4)[C@](C)(C#N)COC5)cc3n2)n1 [Compound 396]
95% | 0.1 to 0.5 µM | 0.5 to 1 µM | 80% | C[C@@]1(C#N)COCc2ccc(C(=O)NCc3cc4nc(-c5ccc(N6CCC6)nc5)ccc4cn3)cc21 [Compound 456]
101% | < 0.1 µM | 0.1 to 0.5 µM | 93% | C[C@@]1(F)COCc2ccc(C(=O)NCc3cc4nc(-c5cccc(N6CCCC6=O)n5)ccc4nn3)cc21 [Compound 239]
96% | < 0.1 µM | 0.5 to 1 µM | 79% | C[C@@]1(C#N)COCc2ccc(C(=O)NCc3cc(OCc4cc(F)c5c(c4)CCO5)ccn3)cc21 [Compound 45]
98% | 0.1 to 0.5 µM | > 1 µM | 92% | COCCOCCNC(=O)c1cccc(-c2ccc3cnc(CNC(=O)c4ccc5c(c4)[C@](C)(C#N)COC5)cc3n2)c1 [Compound 316]
98% | < 0.1 µM | 0.1 to 0.5 µM | 95% | C[C@@]1(F)COCc2ccc(C(=O)NCc3cc4nc(-c5cncc(N6CCC6)n5)ccc4nn3)cc21 [Compound 276]
92% | 0.1 to 0.5 µM | > 1 µM | 50% | C[C@@]1(C#N)COCc2ccc(C(=O)NCc3cc4nc(-c5cc(F)c(=O)n(C(F)F)c5)ccc4cn3)cc21 [Compound 449]
89% | 0.1 to 0.5 µM | > 1 µM | 48% | C[C@@]1(C#N)COCc2ccc(C(=O)NCc3cc4c(cn3)CCN(c3ccnc(C5CC5)n3)C4)cc21 [Compound 327]
101% | < 0.1 µM | < 0.1 µM | 97% | CCc1cc2c(-c3ccc4cnc(CNC(=O)c5ccc6c(c5)[C@](C)(C#N)COC6)cc4n3)cccc2n1C [Compound 134]
87% | 0.1 to 0.5 µM | > 1 µM | 45% | C[C@@]1(C#N)COCc2ccc(C(=O)NCc3cc4nc(-n5cccc(C6CC6)c5=O)ccc4cn3)cc21 [Compound 282]
